# Laboratory results reported in ChEMBL document CHEMBL4400520, “Benzofuran-isatin-imine hybrids tethered via different length alkyl linkers: Design, synthesis and in vitro evaluation of anti-tubercular and anti-bacterial activities as well as cytotoxicity” (Eur J Med Chem, 2019).
# Key:
# Type in all cases: functional
# [1] = system: Mycobacterium tuberculosis; experiment: Antitubercular activity against multidrug resistant Mycobacterium tuberculosis isolate 2
# [2] = system: Mycobacterium tuberculosis; experiment: Antitubercular activity against multidrug resistant Mycobacterium tuberculosis isolate 1
# [3] = system: Mycobacterium tuberculosis; experiment: Potency index, ratio of isoniazid MIC to compound MIC for multidrug resistant Mycobacterium tuberculosis isolate 2
# [4] = system: Mycobacterium tuberculosis; experiment: Potency index, ratio of isoniazid MIC to compound MIC for multidrug resistant Mycobacterium tuberculosis isolate 1
# [5] = system: Mycobacterium tuberculosis; experiment: Potency index, ratio of ciprofloxacin MIC to compound MIC for multidrug resistant Mycobacterium tuberculosis isolate 2
# [6] = system: Mycobacterium tuberculosis; experiment: Potency index, ratio of rifampin MIC to compound MIC for multidrug resistant Mycobacterium tuberculosis isolate 2
# [7] = system: Mycobacterium tuberculosis; experiment: Potency index, ratio of ciprofloxacin MIC to compound MIC for multidrug resistant Mycobacterium tuberculosis isolate 1
# [8] = system: Mycobacterium tuberculosis; experiment: Potency index, ratio of rifampin MIC to compound MIC for multidrug resistant Mycobacterium tuberculosis isolate 1
SMILES,MIC [1] [µg/mL],MIC [2] [µg/mL],also measured
CCO/N=C1\C(=O)N(CCCOc2ccc3oc(-c4ccc(OC)cc4)c(C(=O)OCC)c3c2)c2ccc(OC)cc21,2.12,2.24,–
CCOC(=O)c1c(-c2ccc(OC)cc2)oc2ccc(OCCCCCN3C(=O)/C(=N\OC)c4cc(F)ccc43)cc12,4.24,3.46,–
CCOC(=O)c1c(-c2ccc(OC)cc2)oc2ccc(OCCCCCCN3C(=O)/C(=N\OC)c4ccccc43)cc12,1.87,1.73,–
CCOC(=O)c1c(-c2ccc(OC)cc2)oc2ccc(OCCCCCCN3C(=O)C(=O)c4cc(F)ccc43)cc12,12.9,14.2,–
CO[C@H]1/C=C/O[C@@]2(C)Oc3c(C)c(O)c4c(O)c(c(/C=N/N5CCN(C)CC5)c(O)c4c3C2=O)NC(=O)/C(C)=C\C=C\[C@H](C)[C@H](O)[C@@H](C)[C@@H](O)[C@@H](C)[C@H](OC(C)=O)[C@@H]1C [RIFAMPIN],> 40,> 40,–
CCOC(=O)c1c(-c2ccc(OC)cc2)oc2ccc(OCCCCCCN3C(=O)/C(=N\NC(N)=S)c4ccccc43)cc12,0.48,0.47,–
CCOC(=O)c1c(-c2ccc(OC)cc2)oc2ccc(OCCCCCCN3C(=O)/C(=N\OC)c4cc(F)ccc43)cc12,3.56,2.85,–
CCO/N=C1\C(=O)N(CCCCCCOc2ccc3oc(-c4ccc(OC)cc4)c(C(=O)OCC)c3c2)c2ccccc21,3.86,2.69,–
CCOC(=O)c1c(-c2ccc(OC)cc2)oc2ccc(OCCCCCCN3C(=O)/C(=N\NC(N)=S)c4cc(F)ccc43)cc12,0.9,0.95,–
NNC(=O)c1ccncc1 [ISONIAZID],> 40,> 40,–
CCOC(=O)c1c(-c2ccc(OC)cc2)oc2ccc(OCCCN3C(=O)/C(=N\OC)c4ccccc43)cc12,0.21,0.16,–
CCOC(=O)c1c(-c2ccc(F)cc2)oc2ccc(OCCCCCCN3C(=O)C(=O)c4cc(F)ccc43)cc12,2.98,5.89,–
CCOC(=O)c1c(-c2ccccc2)oc2ccc(OCCCN3C(=O)/C(=N\OC)c4ccccc43)cc12,0.91,0.94,–
CCO/N=C1\C(=O)N(CCCCOc2ccc3oc(-c4ccc(OC)cc4)c(C(=O)OCC)c3c2)c2ccccc21,3.42,3.23,–
CNC(=O)c1c(-c2ccc(O)cc2)oc2ccc(O)c(CN3CCCCC3)c12,< 0.016,< 0.016,–
CCOC(=O)c1c(-c2ccccc2)oc2ccc(OCCCN3C(=O)/C(=N\OC)c4cc(OC)ccc43)cc12,0.27,0.21,–
CCOC(=O)c1c(-c2ccc(OC)cc2)oc2ccc(OCCCN3C(=O)/C(=N\OC)c4cc(OC)ccc43)cc12,0.29,0.49,–
CCO/N=C1\C(=O)N(CCCOc2ccc3oc(-c4ccc(OC)cc4)c(C(=O)OCC)c3c2)c2ccccc21,5.88,4.25,–
CCOC(=O)c1c(-c2ccc(OC)cc2)oc2ccc(OCCCCN3C(=O)/C(=N\OC)c4ccccc43)cc12,0.16,0.062,Ratio [3]: >=48; Ratio [4]: >=48; Ratio [5]: >=48; Ratio [6]: >=48; Ratio [7]: >=48; Ratio [8]: >=48
O=C(O)c1cn(C2CC2)c2cc(N3CCNCC3)c(F)cc2c1=O [CIPROFLOXACIN],0.27,0.39,–
